Data taken from US20080194493A1, “Compositions Containing D-Carnosine” (priority 2004, published 2008).
Where two headings read alike, the source gives them in different places.

Experiments:
[1] = Reactivity towards HNE in homogeneous solution (aldehyde consumption by liquid chromatography); format: biochemical; conditions: for inhibited HNE: HNE 10 μm in 10 mM phosphate buffer, molar ratios 1:10 and 1:20
Description: The almost identical reactivity compared with the L-form towards cytotoxic aldehydes, especially HNE and acrolein, was confirmed in a homogenous solution of HNE (10 μm) and acrolein (200 μm) in 10 mM phosphate buffer in molar ratios of the dipeptides amounting to 1:10 and 1:20. […]

[2] = tested on: Zucker rats; experiment: Pharmacological effects of chronic treatment in Zucker rats; format: in vivo
From the text: In particular, D-carnosine is effective for the treatment or prevention of disorders involving highly reactive and cytotoxic carbonyl derivatives (HNE, acrolein, malonyldialdehyde, glyoxal and dimethylglyoxal), especially Alzheimer's disease, atherosclerosis, disorders secondary to diabetes, age-associated tissue degeneration such as sarcopenia, and correlated disorders. Forms designed for topical administration are particularly indicated for the latter.

[3] = Crossing of the blood-brain barrier (stated, no method)
[4] = In vitro stability in human plasma (LC-MS/MS); conditions: after 6 hours incubation at 37° C., in the presence and absence of cadmium chloride
[5] = In vivo acute study, oral administration to Wistar rats; conditions: 570 mg/kg
Description: (§1) An LC-MS/MS technique, validated in the 5-250 μM range, with detection limits of 50-20 picomoles, was set-up for this purpose.
(§2) In the in vivo acute studies, D- and L-carnosine were administered orally to Wistar rats (320 g±25 g) in the form of an aqueous solution at pH 7.4 (HCl) at the dose of 570 mg/kg.

[6] = Chronic treatment with the diet water in obese-Zucker rats: levels in plasma, urine and kidney
Description: The stability of L- and D-carnosine was compared in human plasma and serum in vitro, and in vivo in the rat (acute and chronic treatment). An LC-MS/MS technique, validated in the 5-250 μM range, with detection limits of 50-20 picomoles, was set-up for this purpose.
In chronic treatment, D- and L-camosine were administered with the diet water for 12 weeks at a dose of 30 mg/Kg. The experiment was carried out by using obese-Zucker rats (Charles River), an animal model of metabolic disorders, characterized by hyperinsulinemia, insulin resistance, obesity, hypertriglyceridemia, hypercholesterolemia, and by an increased formation of lipid derived carbonyls, protein carbonylation and appearance of carbonyl-dependent degenerative process such as nephropathy and vascular dysfunction, (Metz T O, Alderson N L, Chachich M E, Thorpe S R, Baynes J W, Pyridoxamine traps intermediates in lipid peroxidation reactions in vivo: evidence on the role of lipids in chemical modification of protein and development of diabetic complications, J Biol Chem. 2003 October 24;278(43):42012-9.

[7] = rat, in vivo, po, 570 mg/kg
Description: as §1, §2

[8] = biological target: T1, carnosinases (Homo sapiens, UniProt Q96KN2); conditions: cited from earlier work
T1 construct: host or cells: human serum
T1 sequence (Q96KN2 27-507 limits assumed): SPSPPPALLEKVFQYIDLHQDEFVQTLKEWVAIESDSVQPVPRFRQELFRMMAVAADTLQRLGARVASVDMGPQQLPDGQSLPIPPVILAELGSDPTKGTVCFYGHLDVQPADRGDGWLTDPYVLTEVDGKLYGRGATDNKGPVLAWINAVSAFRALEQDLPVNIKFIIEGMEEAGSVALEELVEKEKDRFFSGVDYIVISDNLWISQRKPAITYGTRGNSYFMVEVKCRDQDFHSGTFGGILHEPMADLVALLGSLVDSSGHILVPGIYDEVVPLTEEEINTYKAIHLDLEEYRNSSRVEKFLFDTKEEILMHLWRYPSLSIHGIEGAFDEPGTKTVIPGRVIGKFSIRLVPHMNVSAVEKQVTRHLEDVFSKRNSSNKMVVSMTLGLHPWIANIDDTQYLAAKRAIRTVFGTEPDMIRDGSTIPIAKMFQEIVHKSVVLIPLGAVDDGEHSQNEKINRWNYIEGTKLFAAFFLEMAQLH

[9] = 30 mg/Kg with the diet water for 12 weeks

In the case of `NCCC(=O)N[C@H](Cc1cnc[nH]1)C(=O)O` [D-carnosine], the “activity towards HNE compared with aminoguanidine and methoxyamine” value [1] is reported as “far more active towards HNE than aminoguanidine and methoxyamine”, the “reaction kinetics with HNE” value [1] is reported as “first-order profile” and the “inhibited HNE” value ([1]; after 24 hours) is reported as 98.3%. The “inhibited HNE” value ([1]; after one hour's incubation) was 49.2%, the “pharmacological effects of chronic treatment” value [2] was “restrain: hypertriglyceridemia, hypercholesterolemia, hyperthenison, and carbonyl related disesases such as vascular dysfunction and nephropathy” and the blood-brain barrier crossing [3] was “able to cross the blood-brain barrier”. For the same compound, the “stability in human plasma” value [4] was “remained unchanged”, the “Cmax reached at (time)” value [5] was 2 h and the “pharmacological levels maintained up to” value [5] was “up to 8 hours”. The “time to disappear from the administration” value [5] was 24 h, the level in plasma [6, 9] was 1240 ± 300 nM and the “level in the kidney” value [6, 9] was 340.2±12.3 nmoles/gr wt tissue. The level in urine [6, 9] was 6688±345 nmoles over 24 hrs, the “increase of D-carnosine in respect to L-carnosine in plasma” value ([6]; 30 mg/Kg, 12 weeks) was 6 fold and the “increase of D-carnosine in respect to L-carnosine in urine as well as in the kidney” value ([6]; 30 mg/Kg, 12 weeks) was “more than a ten-fold increase”.

With `NCCC(=O)N[C@@H](Cc1cnc[nH]1)C(=O)O` [L-carnosine, β-alanyl-L-histidine] the “inhibited HNE” value ([1]; after 24 hours) was 96.4%, the “inhibited HNE” value ([1]; after one hour's incubation) was 44% and the “stability in human plasma” value was “undetectable”. The “time to disappear from the administration” value ([7]; Wistar) was at most 2 h, the “Cmax (time at which reached)” value [7] was 60 min and the “hydrolysis in human serum” value [8] was “rapidly hydrolysed”.
